“And” between values parts separate entries of the source, which are not always exact repeats. Identical values can stand only once. Like-named read-outs stand apart in the source and are kept apart here.
How the values were obtained:
[1] = target: HIV-1 WT RT (Human immunodeficiency virus type 1 group M subtype B, UniProt P03366); assay: biochemical; format: biochemical
[2] = tested on: HIV-1 WT virus (NL4-3); assay: microbe, parasite or virus in culture; format: cell-based; settings: for EC50: read-out: EC50; for inhibitory potency against HIV-1 (CIC50), result in words: CEMSS cell culture, WT virus (NL4-3), relative to parent compounds 1 and 2
Procedure: Evaluation of these compounds for the inhibition of HIV-1 was determined as the fifty percent cell culture inhibitory concentration (CIC50) in CEMSS cell culture with WT virus (NL4-3).
(§1) In this Example, the antiviral and cellular toxicity of NNRTIs was investigated, using the cytopathic cell killing assay described by Yang (Yang et al., “Characteristics of a Group of Non-nucleoside Reverse Transcriptase Inhibitors with Structural Diversity and Potent Anti-Human Immunodeficiency Virus Activity,” Leukemia 9:S75-S85 [1995]). Briefly, in this method cells (e.g., the CEM-SS cell line, available from the NIAID AIDS Research and Reference Program [ARRRP]) were seeded at a density of 5×10^3 cells/well, into the wells of a 96-well microtiter plate. The cells were then infected with HIV virus (either mutant or WT), at a multiplicity of infection (MOI) previously determined to provide complete cell killing by 6 days of culture post-infection (e.g., MOI of 0.01-0.05). Each of the HIV isolates was pre-titered to induce equivalent levels of infection based on cell killing or virus production, prior to their use in these assays. A range of test compound concentrations was added to the wells in triplicate (e.g., serial half-log dilutions) to evaluate inhibition of HIV infection. Controls for each assay included drug controls (drug colorimetric control wells), drug cytotoxicity control wells (cells with drug), virus control wells (cells with virus), and cell viability controls (cells only). Positive control drugs (e.g. AZT and ddC) were also run in parallel.
(§2) After six days of incubation at 37° C., cell viability was determined spectrophotometrically at 450 nm for each well, using the metabolic reduction of XTT to a soluble colored formazan. (See, Gartner and Popovic, “Virus Isolation and Production, in Aldovini and Walker (eds.), Techniques in HIV Research, Stockton Press, NY, pp. […] [1991]; and Nara and Fischinger, “Quantitative Infectivity Assay for HIV-1 and HIV-2, ” Nature 332:469-470 [1988]).
(§3) The in vitro therapeutic index (TI50) was defined as the fold-difference between the EC50 and IC50. The results for the various compounds are included in FIGS. 8 and 19.

[3] = tested on: HIV-1 isolate Y181C; assay: Cytopathic cell killing assay, MT-4 cells, isolate Y181C; format: cell-based
Excerpt: (§4) The various HIV isolates tested in the Figures are those corresponding to wild-type virus (NL4-3) and the other strains listed by their RT mutations. The three 4×AZT isolates included in the Figures represent AZT drug-resistant variants. For example, the 4×AZT/L100I isolate has five mutations: four mutations confer increased resistance to AZT, and the other mutation is located within the NNRTI binding pocket. TZB and nevir. (nevirapine) are two well-known NNRTIs, included in this experiment for comparison purposes.
as §1, §2, §3

[4] = tested on: HIV-1 NL4-3 (WT); assay: Cytopathic cell killing assay, MT-4 cells, isolate NL4-3 (WT); format: cell-based
Excerpt: as §4, §1, §2, §3

[5] = tested on: HIV-1 isolate K101E; assay: Cytopathic cell killing assay, MT-4 cells, isolate K101E; format: cell-based
Excerpt: as §4, §1, §2, §3

[6] = tested on: HIV-1 isolate L100I; assay: Cytopathic cell killing assay, MT-4 cells, isolate L100I; format: cell-based
Excerpt: as §4, §1, §2, §3

[7] = tested on: HIV-1 isolate K103N; assay: Cytopathic cell killing assay, MT-4 cells, isolate K103N; format: cell-based; settings: for EC50: values in μM
Excerpt: as §4, §1, §2, §3

[8] = tested on: HIV-1 isolate V108I; assay: Cytopathic cell killing assay, MT-4 cells, isolate V108I; format: cell-based; settings: values in μM
Excerpt: as §4, §1, §2, §3

[9] = tested on: HIV-1 isolate Y188C; assay: Cytopathic cell killing assay, MT-4 cells, isolate Y188C; format: cell-based; settings: values in μM
Excerpt: as §4, §1, §2, §3

[10] = tested on: WT and HIV-1 variants containing amino acid substitutions in RT; format: cell-based; settings: cytopathic cell killing assay, NNRTI-resistant HIV isolates
Excerpt: In these Tables, antiviral data are reported as the quantity of drug in μM required to reduce cell killing or virus production by 50% (EC50). The various HIV isolates tested in the Figures are those corresponding to wild-type virus (NL4-3) and the other strains listed by their RT mutations. The three 4×AZT isolates included in the Figures represent AZT drug-resistant variants.
Briefly, in this method cells (e.g., the CEM-SS cell line, available from the NIAID AIDS Research and Reference Program [ARRRP]) were seeded at a density of 5×10^3 cells/well, into the wells of a 96-well microtiter plate. The cells were then infected with HIV virus (either mutant or WT), at a multiplicity of infection (MOI) previously determined to provide complete cell killing by 6 days of culture post-infection (e.g., MOI of 0.01-0.05). Each of the HIV isolates was pre-titered to induce equivalent levels of infection based on cell killing or virus production, prior to their use in these assays. A range of test compound concentrations was added to the wells in triplicate (e.g., serial half-log dilutions) to evaluate inhibition of HIV infection. Controls for each assay included drug controls (drug colorimetric control wells), drug cytotoxicity control wells (cells with drug), virus control wells (cells with virus), and cell viability controls (cells only). Positive control drugs (e.g. AZT and ddC) were also run in parallel.
as §2
Antiviral and toxicity data were reported as the quantity of drug required to inhibit 50% of virus-induced cell killing or virus production (EC50), and the quantity of drug required to […] (IC50). The in vitro therapeutic index (TI50) was defined as the fold-difference between the EC50 and IC50.

[11] = tested on: HIV-1 isolate V179D; assay: Cytopathic cell killing assay, MT-4 cells, isolate V179D; format: cell-based; settings: MT-4 cells
Excerpt: as §4, §1, §2, §3

[12] = Table 11, WT RT, read-out: IC50
[13] = Table 11, CEMSS/NL4-3, NRVC = no reduction in viral CPE
[14] = Human immunodeficiency virus 1, NL43, CEM-SS, Table 7, drug concentration required to reduce cell killing or virus production by 50%, WT
[15] = Human immunodeficiency virus 1, MT4, read-out: EC50, isolate Y181C, Table 10, values in μM
[16] = Human immunodeficiency virus 1, MT4, read-out: EC50, isolate V108I, Table 10
[17] = Human immunodeficiency virus 1, MT4, read-out: EC50, isolate Y188C, Table 10
[18] = Human immunodeficiency virus 1, NL43, CEM-SS, Table 11, CEMSS/NL4-3, NRVC = no reduction in viral CPE
[19] = Human immunodeficiency virus 1, MT4, read-out: EC50, isolate Y181C, Table 8, MT-4 cells
[20] = Human immunodeficiency virus 1, NL43, MT4, Table 8, MT-4 cells, read-out: EC50, isolate NL4-3
[21] = Human immunodeficiency virus 1, MT4, read-out: EC50, isolate K103N, Table 10

Fc1cccc(F)c1-c1nc2ccccc2n1Cc1ccccc1 [Compound 28, 1-benzyl-2-(2,6-difluorophenyl)benzimidazole]
RT inhibition, result in words ([1]; WT RT): decrease in inhibition | melting point: 124 °C

Cc1cccc2c1nc(-c1c(F)cccc1F)n2Cc1ccccc1 [Compound 29, 1-benzyl-2-(2,6-difluorophenyl)-4-methylbenzimidazole]
RT inhibition, result in words ([1]; WT RT): decrease in inhibition | melting point: 112 to 117 °C

Cc1cccc2c1nc(-c1c(F)cccc1F)n2Cc1c(Cl)cccc1Cl [Compound 30, 1-(2,6-dichlorobenzyl)-2-(2,6-difluorophenyl)-4-methylbenzimidazole]
RT inhibition, result in words ([1]; WT RT): decrease in inhibition | melting point: 202 to 203 °C

Cc1ccccc1-c1nc2ccccc2n1Cc1c(F)cccc1F [Compound 36, 1-(2,6-difluorobenzyl)-2-(2-methylphenyl)benzimidazole]
RT inhibition, result in words ([1]; WT RT): two-fold decrease in RT inhibition | melting point: 139 °C

Cc1cccc2c1nc(CO)n2Cc1c(F)cccc1F [Compound 48, 1-(2,6-difluorobenzyl)-2-hydroxymethyl-4-methylbenzimidazole]
inhibition at 10 µM ([1]; Table 3, 10 μM drug, WT RT, rC-dG template primer, read-out: % inhibn (10 μM)): 12% | % inhibn (1 μM) ([1]; Table 6, 1 μM drug, WT HIV-1 RT, average of two experiments done in triplicates): 51% | IC50 [1, 12]: 1880 nM | EC50 [2, 13]: 2400 nM

[N-]=[N+]=NCc1cccc2c1nc(-c1c(F)cccc1F)n2Cc1c(F)cccc1F [Compound 70, 1-(2,6-difluorobenzyl)-2-(2,6-difluorophenyl)benzimidazol-4-yl-azidomethyl]
EC50 [2, 13]: 45 nM | EC50 ([3]; Table 10, values in μM, read-out: EC50, isolate Y181C): 0.82 µM | EC50 ([4]; Table 10, values in μM, read-out: EC50, isolate NL4-3 (WT)): 0.045 µM | EC50 ([5]; Table 10, values in μM, read-out: EC50, isolate K101E): 0.6 µM | EC50 ([6]; Table 10, values in μM, read-out: EC50, isolate L100I): 0.06 µM | EC50 ([7]; Table 10, read-out: EC50, isolate K103N): 1.48 µM | EC50 ([8]; Table 10, read-out: EC50, isolate V108I): 0.026 µM | EC50 ([9]; Table 10, read-out: EC50, isolate Y188C): 0.22 µM

Fc1cccc(F)c1Cn1c(-c2c(F)cccc2F)nc2c(Br)cccc21 [Compound 3400, 4-bromo-1-(2,6-difluorobenzyl)-2-(2,6-difluorophenyl)benzimidazole]
EC50 [2, 14]: 370 nM | EC50 [3, 15]: 10.7 µM | melting point: 147 to 148 °C | EC50 [8, 16]: 4.2 µM | EC50 [9, 17]: 3.7 µM

Fc1cccc(F)c1Cn1c(-c2c(F)cccc2F)nc2c(Cl)cccc21 [Compound 3500, 4-chloro-1-(2,6-difluorobenzyl)-2-(2,6-difluorophenyl)benzimidazole]
cross-resistance profile, result in words [10]: inhibit HIV-1 better than TZB | inhibitory potency against HIV-1 (CIC50), result in words [2]: modest potency-enhancing effect | EC50 [2, 14]: 440 nM | EC50 [2, 18]: 440 nM | EC50 [3, 19]: 7.3 µM | EC50 [3, 15]: 8.4 µM | EC50 [4, 20]: 0.4 µM | melting point: 163 to 164 °C and 163 °C | EC50 [7, 21]: 10.2 µM | EC50 [8, 16]: 3.2 µM | EC50 [9, 17]: 3.4 µM

CN(C)c1cccc2c1nc(-c1c(F)cccc1F)n2Cc1c(F)cccc1F [Compound 3700, 1-(2,6-difluorobenzyl)-2-(2,6-difluorophenyl)-4-N,N-dimethylaminobenzimidazole]
inhibition at 1 µM ([1]; Table 7, 1 μM drug, WT HIV-1 RT, read-out: % inhibn (1 μM)): 77% | IC50 ([1]; read-out: IC50): 40000 nM | EC50 [2, 14]: 2370 nM | EC50 [2, 18]: 2370 nM | EC50 [3, 15]: > 100 µM | EC50 ([4]; Human immunodeficiency virus 1, NL43, MT4, Table 10, values in μM, read-out: EC50, isolate NL4-3 (WT)): 2.88 µM | EC50 ([6]; Human immunodeficiency virus 1, MT4, read-out: EC50, isolate L100I, Table 10, values in μM): 31.6 µM | melting point: 155 to 156 °C | EC50 [7, 21]: > 100 µM

CNc1cccc2c1nc(-c1c(F)cccc1F)n2Cc1c(F)cccc1F [Compound 5012, 1-(2,6-difluorobenzyl)-2-(2,6-difluorophenyl)-4-(N-methylamino)benzimidazole]
cross-resistance profile, result in words [10]: inhibit HIV-1 better than TZB | IC50 [1]: 4940 nM | % inhibn (1 μM) ([1]; Table 7, 1 μM drug, WT HIV-1 RT): 24% | inhibitory potency against HIV-1 (CIC50), result in words [2]: significantly poorer inhibitors | EC50 [2, 14]: 1700 nM | EC50 [2, 18]: 1700 nM | EC50 ([11]; Human immunodeficiency virus 1, MT4, read-out: EC50, isolate V179D, Table 8): 3800 nM

Nc1cccc2c1nc(-c1c(F)cccc1F)n2Cc1c(F)cccc1F [Example 53]
IC50 [1, 12]: 280 nM | EC50 [2, 18]: 460 nM | melting point: 139 to 141 °C

CC1Cn2c(=O)[nH]c3cccc(c32)CN1 (centres unmarked) [TIBO, 4,5,6,7-tetrahydro-5-methylimidazo[4,5,1-jk][1,4]benzodiazepin-2(1H)-one, reference compound]
EC50 ([6]; Human immunodeficiency virus 1, MT4, read-out: EC50, isolate L1001, Table 4, MT-4 cells): ≥ 17.4 µM

Cc1ccnc2c1NC(=O)c1cccnc1N2C1CC1 [nevir., nevirapine, reference compound]
EC50 [2, 18]: 35 nM | EC50 [3, 19]: 4.9 µM | EC50 [4, 20]: 0.04 µM | EC50 ([11]; Human immunodeficiency virus 1, MT4, read-out: EC50, isolate V179D, Table 9): 200 nM | EC50 ([5]; Human immunodeficiency virus 1, MT4, read-out: EC50, isolate K101E, Table 8, MT-4 cells): 1.1 µM | activity against K103N, result in words ([7]; cytopathic cell killing assay): ineffective

Reference: patent publication US6894068B2, “Substituted benzimidazoles as non-nucleoside inhibitors of reverse transcriptase” (The United States of America as represented by the …, priority 1997, dated 2005)
